Assay results as given in ChEMBL document CHEMBL1201862, “PubChem BioAssay data set” (2004).
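Following 48 hours of exposure in 96-well plates, responses at five concentrations were used to interpolate endpoints linearly. GI50: concentration for 50% inhibition of growth.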 Calls of active or inactive are those of the source. Rule as the data show it: active = GI50 up to about 1.1 µM and inactive = higher.

Tests used:
Experiment in all cases: NCI-60 cell line screen, 48 h
BT-549 = system: BT-549
DLD-1 = system: DLD-1
HOP-18 = system: HOP-18
KM-20L2 = system: KM-20L2
LXFL 529 = system: LXFL 529
M19-MEL = system: M19-MEL
RXF 631 = system: RXF 631
SNB-78 = system: SNB-78
XF498 = system: XF498

SMILES	GI50 (BT-549)	GI50 (DLD-1)	GI50 (LXFL 529)	GI50 (M19-MEL)	further results
CC(=O)/C=c1\[nH]/c(=C\C=C\c2ccccc2)c(=O)n1/C=C1\C(=O)Oc2ccccc2C1=O	> 100 µM (inactive)	–	–	–	–
Cc1ccc(Nc2nc(C)c(C(/C=C/c3ccc(/C=C/C(=N/NC(=O)C[n+]4ccccc4)c4sc(Nc5ccc(C)cc5[N+](=O)[O-])nc4C)cc3)=N\NC(=O)C[n+]3ccccc3)s2)c([N+](=O)[O-])c1	–	71.3 µM (inactive)	95.7 µM (inactive)	> 100 µM (inactive)	GI50 (HOP-18): 7.96 µM (inactive); GI50 (KM-20L2): > 100 µM (inactive); GI50 (RXF 631): > 100 µM (inactive); GI50 (SNB-78): 91.2 µM (inactive)
O=S(=O)(C1=CC(S(=O)(=O)c2ccccc2)COC1)c1ccccc1 (stereo not given)	–	> 100 µM (inactive)	> 100 µM (inactive)	> 100 µM (inactive)	GI50 (XF498): > 100 µM (inactive)
CC(=O)OC1CCC2(C)C(CCC3C4CC=C(C5(C)OCCO5)C4(C)CCC32)C1 (stereo not given)	20.6 µM (inactive)	–	–	–	–
OC1CC2CCCN(CCc3c1[nH]c1ccccc31)C2 (stereo not given)	38.3 µM (inactive)	–	–	–	–
Cc1cc(C)c(C(=O)O)c(N)c1O	–	> 100 µM (inactive)	> 100 µM (inactive)	> 100 µM (inactive)	GI50 (KM-20L2): > 100 µM (inactive)
CCC[C@H](C)[C@H]1NC(=O)[C@@H](NC(=O)[C@@H](CC(C)C)N(C)C(=O)C2CCCN2C(=O)[C@H](C)O)[C@@H](C)OC(=O)[C@H](CC(C)C)N(C)C(=O)[C@@H]2CCCN2C(=O)[C@H](CC(C)C)NC(=O)[C@@H](C)C(=O)[C@H](C(C)C)OC(=O)C[C@@H]1O (stereo not given in full)	< 0.0025 µM (active)	–	–	–	–
Cn1c([C@H](C#N)c2ncccc2[N+](=O)[O-])nc2ccccc21	> 100 µM (inactive)	–	–	–	–
C[C@@H](O)C(=O)N1[C@@H]2CC3CC[C@]2(CS1(=O)=O)C3(C)C	> 100 µM (inactive)	–	–	–	–
CC(=O)N1N=C(c2ccc3ccccc3c2O)CC1c1ccc(N(C)C)cc1 (stereo not given)	> 100 µM (inactive)	–	–	–	–
COc1cc2c(cc1OCCCC(=O)Nc1cc(C(=O)Nc3cc(C(=O)Nc4cc(C(=O)NCCCN(C)C)n(C)n4)n(C)n3)n(C)n1)N=CC1CCCN1C2=O (stereo not given)	12.4 µM (inactive)	–	–	–	–
Brc1cccc(/C=C/CN2CCN(CCOC(c3ccccc3)c3ccccc3)CC2)c1	16.5 µM (inactive)	–	–	–	–
CN(C)CCn1c(=O)c2ccc(NCCCN(C)CCCNc3ccc4c(=O)n(CCN(C)C)c(=O)n5c6ccc(O)cc6c(=O)c3c45)c3c(=O)c4cc(O)ccc4n(c1=O)c23	0.0692 µM (active)	–	–	–	–
COc1cc([C@@H]2c3cc4c(cc3[C@@H](NCc3ccc(C#N)cc3)C3COC(=O)[C@@H]32)OCO4)cc(OC)c1O (stereo not given in full)	–	1.33 µM (inactive)	4.5 µM (inactive)	1.82 µM (inactive)	GI50 (HOP-18): 95.3 µM (inactive); GI50 (KM-20L2): 1.08 µM (active); GI50 (SNB-78): 4.74 µM (inactive); GI50 (XF498): 0.278 µM (active)
CS(=O)(=O)OCCCSCCSCCCOS(C)(=O)=O	> 100 µM (inactive)	–	–	–	–
O=[N+]([O-])c1ccc(Cl)c(C2CC(c3cccc4ccccc34)=Nc3ccccc3[S+]2[O-])c1 (stereo not given)	–	9.55 µM (inactive)	13.3 µM (inactive)	20.6 µM (inactive)	GI50 (HOP-18): 24.2 µM (inactive); GI50 (KM-20L2): 20.2 µM (inactive); GI50 (RXF 631): 29.4 µM (inactive); GI50 (SNB-78): 11.4 µM (inactive)
